From PubChem BioAssay AID1963850 (Molecular Pharmacology Branch, DTP, NCI, 2024)

System: 192522-019-R-J2-PDC complex tumor spheroid viability
Experiment: Anticancer human tumor 192522-019-R-J2-PDC patient-derived colon adenocarcinoma cell line growth inhibition [POLQ]
Details: for IC50: curve of first compound; for viability, T/C: stronger effect = lower value
In short: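 Growth inhibition in 3D: complex spheroids (tumor PDC, HUVEC, MSC) treated with POLQ inhibitor combinations; where Cmax unknown, highest tested concentration 10 microM, except SN-38 at 1 microM.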

[1] = second compound 0.0316 µM, first compound 0.0316 µM
[2] = second compound 0.0316 µM, first compound 0.1 µM
[3] = second compound 0.0316 µM, first compound 0.316 µM
[4] = second compound 0.0316 µM, first compound 1 µM
[5] = second compound 0.0316 µM, first compound 3.16 µM
[6] = second compound 0.0316 µM, first compound 10 µM
[7] = second compound 0.1 µM, first compound 0.0316 µM
[8] = second compound 0.1 µM, first compound 0.1 µM
[9] = second compound 0.1 µM, first compound 0.316 µM
[10] = second compound 0.1 µM, first compound 1 µM
[11] = second compound 0.1 µM, first compound 3.16 µM
[12] = second compound 0.1 µM, first compound 10 µM
[13] = second compound 0.316 µM, first compound 0.0316 µM
[14] = second compound 0.316 µM, first compound 0.1 µM
[15] = second compound 0.316 µM, first compound 0.316 µM
[16] = second compound 0.316 µM, first compound 1 µM
[17] = second compound 0.316 µM, first compound 3.16 µM
[18] = second compound 0.316 µM, first compound 10 µM
[19] = second compound 1 µM, first compound 0.0316 µM
[20] = second compound 1 µM, first compound 0.1 µM
[21] = second compound 1 µM, first compound 0.316 µM
[22] = second compound 1 µM, first compound 1 µM
[23] = second compound 1 µM, first compound 3.16 µM
[24] = second compound 1 µM, first compound 10 µM
[25] = second compound 3.16 µM, first compound 0.0316 µM
[26] = second compound 3.16 µM, first compound 0.1 µM
[27] = second compound 3.16 µM, first compound 0.316 µM
[28] = second compound 3.16 µM, first compound 1 µM
[29] = second compound 3.16 µM, first compound 3.16 µM
[30] = second compound 3.16 µM, first compound 10 µM
[31] = second compound 10 µM, first compound 0.0316 µM
[32] = second compound 10 µM, first compound 0.1 µM
[33] = second compound 10 µM, first compound 0.316 µM
[34] = second compound 10 µM, first compound 1 µM
[35] = second compound 10 µM, first compound 3.16 µM
[36] = second compound 10 µM, first compound 10 µM
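Note: spheroids exposed to drugs for seven days before reading.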
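Throughout, for viability, T/C: 100% = DMSO vehicle control viability in luminescence.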

`C=CC(=O)N1CCN(c2nc(=O)n(-c3c(C)ccnc3C(C)C)c3nc(-c4c(O)cccc4F)c(F)cc23)C(C)C1` (stereo unspecified) + Nc1ccc(C#CCN(C(=O)Cc2ncc(C(F)(F)F)cc2C(F)(F)F)c2ccc(F)cc2)nn1 was tested, and the IC50 (second compound 0.0316 µM) was > 10 µM, the IC50 (second compound 0.1 µM) was > 10 µM and the IC50 (second compound 0.316 µM) was > 10 µM. The IC50 (second compound 1 µM) was > 10 µM, the IC50 (second compound 3.16 µM) was > 10 µM and the IC50 (second compound 10 µM) was > 10 µM. The viability, T/C [1] was 104%, the viability, T/C [2] was 99.7% and the viability, T/C [3] was 96.7%. It also gave a viability, T/C [4] of 111%, a viability, T/C [5] of 116% and a viability, T/C [6] of 97%. The viability, T/C [7] was 105%, the viability, T/C [8] was 97.2% and the viability, T/C [9] was 110%. It also gave a viability, T/C [10] of 112%, a viability, T/C [11] of 102% and a viability, T/C [12] of 98.3%. It also gave a viability, T/C [13] of 108%, a viability, T/C [14] of 104% and a viability, T/C [15] of 103%. The viability, T/C [16] was 105%, the viability, T/C [17] was 116% and the viability, T/C [18] was 100%. The viability, T/C [19] was 109%, the viability, T/C [20] was 102% and the viability, T/C [21] was 103%. It also gave a viability, T/C [22] of 108%, a viability, T/C [23] of 119% and a viability, T/C [24] of 99.3%. It also gave a viability, T/C [25] of 102%, a viability, T/C [26] of 98.8% and a viability, T/C [27] of 103%. The viability, T/C [28] was 108%, the viability, T/C [29] was 115% and the viability, T/C [30] was 106%. For the same molecule, the viability, T/C [31] was 104%, the viability, T/C [32] was 111% and the viability, T/C [33] was 102%. The viability, T/C [34] was 108%, the viability, T/C [35] was 107% and the viability, T/C [36] was 104%.

For `O=c1[nH]cc(F)c(=O)[nH]1` + Nc1ccc(C#CCN(C(=O)Cc2ncc(C(F)(F)F)cc2C(F)(F)F)c2ccc(F)cc2)nn1, the IC50 (second compound 0.0316 µM) was > 10 µM, the IC50 (second compound 0.1 µM) was > 10 µM and the IC50 (second compound 0.316 µM) was > 10 µM. For the same molecule, the IC50 (second compound 1 µM) was > 10 µM, the IC50 (second compound 3.16 µM) was > 10 µM and the IC50 (second compound 10 µM) was > 10 µM. It also gave a viability, T/C [1] of 99.2%, a viability, T/C [2] of 98.4% and a viability, T/C [3] of 92.5%. The viability, T/C [4] was 90.4%, the viability, T/C [5] was 96.4% and the viability, T/C [6] was 90.3%. It also gave a viability, T/C [7] of 104%, a viability, T/C [8] of 101% and a viability, T/C [9] of 95%. For the same molecule, the viability, T/C [10] was 95.9%, the viability, T/C [11] was 91.2% and the viability, T/C [12] was 85.6%. For the same molecule, the viability, T/C [13] was 104%, the viability, T/C [14] was 93.5% and the viability, T/C [15] was 96.4%. The viability, T/C [16] was 85.3%, the viability, T/C [17] was 88.2% and the viability, T/C [18] was 96.4%. It also gave a viability, T/C [19] of 104%, a viability, T/C [20] of 98.1% and a viability, T/C [21] of 98.5%. The viability, T/C [22] was 92.2%, the viability, T/C [23] was 96% and the viability, T/C [24] was 89.2%. It also gave a viability, T/C [25] of 102%, a viability, T/C [26] of 98.9% and a viability, T/C [27] of 92.8%. The viability, T/C [28] was 96.6%, the viability, T/C [29] was 95.8% and the viability, T/C [30] was 90.1%. For the same molecule, the viability, T/C [31] was 116%, the viability, T/C [32] was 95.1% and the viability, T/C [33] was 91.1%. For the same molecule, the viability, T/C [34] was 85.9%, the viability, T/C [35] was 93.5% and the viability, T/C [36] was 90.5%.

In the case of `O=c1[nH]cc(F)c(=O)[nH]1` + Cc1cccc(N(C)C(=O)C2C(O)CCN2c2nc(C)cc(C(F)(F)F)c2C#N)c1, the IC50 (second compound 0.0316 µM) is reported as > 10 µM, the IC50 (second compound 0.1 µM) is reported as > 10 µM and the IC50 (second compound 0.316 µM) is reported as > 10 µM. For the same molecule, the IC50 (second compound 1 µM) was > 10 µM, the IC50 (second compound 3.16 µM) was > 10 µM and the IC50 (second compound 10 µM) was > 10 µM. It also gave a viability, T/C [1] of 111%, a viability, T/C [2] of 88.5% and a viability, T/C [3] of 76.8%. The viability, T/C [4] was 87.2%, the viability, T/C [5] was 91.3% and the viability, T/C [6] was 72.4%. For the same molecule, the viability, T/C [7] was 103%, the viability, T/C [8] was 92.8% and the viability, T/C [9] was 84.6%. It also gave a viability, T/C [10] of 81.7%, a viability, T/C [11] of 81% and a viability, T/C [12] of 85.3%. It also gave a viability, T/C [13] of 95.5%, a viability, T/C [14] of 95.9% and a viability, T/C [15] of 85%. The viability, T/C [16] was 80.7%, the viability, T/C [17] was 78% and the viability, T/C [18] was 86.1%. For the same molecule, the viability, T/C [19] was 96.8%, the viability, T/C [20] was 92.9% and the viability, T/C [21] was 87.1%. It also gave a viability, T/C [22] of 96.1%, a viability, T/C [23] of 89% and a viability, T/C [24] of 82.9%. The viability, T/C [25] was 112%, the viability, T/C [26] was 88.9% and the viability, T/C [27] was 87.1%. For the same molecule, the viability, T/C [28] was 81.4%, the viability, T/C [29] was 93.1% and the viability, T/C [30] was 78.6%. The viability, T/C [31] was 106%, the viability, T/C [32] was 89.1% and the viability, T/C [33] was 81.6%. It also gave a viability, T/C [34] of 83.6%, a viability, T/C [35] of 88.3% and a viability, T/C [36] of 75.9%.
